Measurements from patent US20250333394A1, “Tiparp Inhibitor Compounds” (AbbVie Inc., priority 2024, published 2025).

Assays:
PARP1 GST = PARP1 GST (Homo sapiens (Human), UniProt P09874); test: TR-FRET binding assay, PARP1; conditions: Probe 2, 2 hours incubation
In short: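 Serially diluted compounds, final 30 μM down to 0.5 nM, incubated 2 h at ambient temperature with GST-tagged protein/probe mix plus 1 nM Tb-anti-GST antibody. Buffer: 50 mM Tris-HCl pH 8.0, 5 mM MgCl2, 5 μM ZnCl2, 1 mM DTT, 0.15% BSA, 0.01% Triton X-100. Binding read as TR-FRET ratio.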

NCI-H1373 tumors = test: NCI-H1373 xenograft tumor model efficacy; type: in vivo, mouse; conditions: PO BID for 14 days, SCID-beige mice
Experimental: The human xenograft line NCI-H1373 was obtained from ATCC (American Type Culture Collection, Manassas, Virginia, USA). A suspension of 5×10^6 cells in culture medium mixed with Matrigel® (Corning Life Sciences, Lowell, MA, USA; 1:1, volume:volume) was injected subcutaneously in the right hind flank of female SCID-beige mice to generate tumor formation. Treatment started when the size of the flank tumors was approximately 120 mm^3. The TIPARP inhibition activity of Example 1 was evaluated by dosing five separate treatment groups with vehicle and four different doses of Example 1, administered twice a day (BID) for 14 days. Each administration consisted of a 0.2 mL PO dose in a vehicle formulation (10% ethanol, 30% PEG300, and 60% PHOSAL® 50).

IFNβ = test: Tumor selective induction of IFNβ in MC-38 (Ker) syngeneic model; type: in vivo, mouse; conditions: 3 hours after last dose, PO once daily for 2 days
Experimental: The murine cell line MC-38 derived from C57BL/6 murine colon adenocarcinoma cells was obtained from Kerafast (Boston, MA, USA). A suspension of 2.5×10^5 cells in culture medium mixed with Matrigel® (Corning Life Sciences, Lowell, MA, USA; 1:1, volume:volume) was injected subcutaneously in the right hind flank of female C57BL/6 mice to generate tumor formation. Treatment started when the size of the flank tumors was approximately 500 mm^3. Vehicle and three different doses of Example 1 were administered once daily to each of four to five mice at each dose level for 2 days. Each administration consisted of a single 0.2 mL PO dose in a vehicle formulation (10% ethanol, 30% PEG300, and 60% PHOSAL® 50 PG).
Blood and tumors were collected 3 hours after the last dose. Blood was transferred to microfuge tubes containing E DTA, centrifuged at 2000×g for 8 minutes at 4° C., and the upper plasma layer was transferred to new tubes and frozen at −80° C. Tumors were weighed and 200 to 500 mg of tumor tissue was transferred to microfuge tubes, which were then centrifuged at 15000×g for 10 minutes at 4° C. The supernatant was transferred to a fresh 96 well plate. […] The concentration of IFNβ in the thawed plasma and tumor fluid was determined using a Milliplex MAP mouse IFNβ assay (EMD Millipore, Burlington, MA, USA).

NCI-H1373 cells = test: NCI-H1373 CellTiter-Glo cell assay for TIPARP inhibition; type: cell-based, human; conditions: Homo sapiens, NCI-H1373, 144 h; 6 days, 100 nM 10-Cl-BBQ in medium; read-out: NCI-H1373 CTG EC50
In short: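 NCI-H1373 cells (1000/well) grown in RPMI 1640 with 10% FBS and 100 nM 10-Cl-BBQ, exposed to compounds from 30 μM to 0.5 nM final in 3-fold steps for 6 days at 37° C. Cell number read on day 7 by CellTiter-Glo luminescence.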

Chain of PARP1 GST (P09874 whole entry): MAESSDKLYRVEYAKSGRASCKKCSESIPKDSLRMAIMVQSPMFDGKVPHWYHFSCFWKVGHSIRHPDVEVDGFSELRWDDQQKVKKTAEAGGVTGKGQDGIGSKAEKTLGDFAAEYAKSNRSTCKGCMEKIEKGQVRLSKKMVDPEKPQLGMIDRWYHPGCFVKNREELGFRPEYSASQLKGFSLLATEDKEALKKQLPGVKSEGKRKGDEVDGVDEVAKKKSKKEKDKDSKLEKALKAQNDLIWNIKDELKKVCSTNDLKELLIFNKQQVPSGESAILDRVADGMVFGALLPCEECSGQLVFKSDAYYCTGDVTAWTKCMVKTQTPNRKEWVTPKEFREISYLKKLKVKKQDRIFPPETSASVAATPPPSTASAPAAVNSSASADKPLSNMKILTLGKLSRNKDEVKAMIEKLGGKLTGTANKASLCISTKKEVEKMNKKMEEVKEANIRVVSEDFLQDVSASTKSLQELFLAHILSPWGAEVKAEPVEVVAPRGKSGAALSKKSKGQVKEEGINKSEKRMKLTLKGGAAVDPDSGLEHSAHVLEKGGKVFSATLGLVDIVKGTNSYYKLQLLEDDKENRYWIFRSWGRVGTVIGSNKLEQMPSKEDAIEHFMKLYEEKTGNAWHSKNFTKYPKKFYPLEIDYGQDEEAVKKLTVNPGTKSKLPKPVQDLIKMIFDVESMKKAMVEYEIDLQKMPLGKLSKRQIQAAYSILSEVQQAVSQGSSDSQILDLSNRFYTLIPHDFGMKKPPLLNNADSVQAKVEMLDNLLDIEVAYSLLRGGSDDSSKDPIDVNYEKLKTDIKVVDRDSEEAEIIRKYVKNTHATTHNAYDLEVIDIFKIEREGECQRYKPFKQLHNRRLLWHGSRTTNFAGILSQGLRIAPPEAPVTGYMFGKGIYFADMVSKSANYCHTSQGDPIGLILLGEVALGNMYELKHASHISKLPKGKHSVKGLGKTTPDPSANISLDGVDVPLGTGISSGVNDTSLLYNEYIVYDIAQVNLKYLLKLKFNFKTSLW

C[C@@H]1CN(c2ncc(C(F)(F)F)cn2)CCN1C(=O)[C@H]1C[C@@H](c2c[nH]c(=O)c(C(F)(F)F)c2)C1 [Example 1, 5-[(1S,3s)-3-{(2R)-2-methyl-4-[5-(trifluoromethyl)pyrimidin-2-yl]piperazine-1-carbonyl}cyclobutyl]-3-(trifluoromethyl)pyridin-2(1H)-one]
IC50 (PARP1 GST): 2740 nM
TGIMax (NCI-H1373 tumors; Dose A): 26%
TGIMax (NCI-H1373 tumors; Dose B): 46%
TGIMax (NCI-H1373 tumors; Dose C): 73%
TGIMax (NCI-H1373 tumors; Dose D): 92%
induction of IFNβ in plasma (IFNβ; plasma): not in plasma
induction of IFNβ in tumors (IFNβ; tumor fluid): induced IFNβ in MC-38 (Ker) tumors compared to vehicle
EC50 (NCI-H1373 cells): 17.2 nM
